Measurements reported in US6506876B1, “LTA4 hydrolase inhibitor pharmaceutical compositions and methods of use” (G.D. Searle & Co., priority 1994, dated 2003).
Where a name gives a salt, the structure may show the parent alone. Read-outs that look alike come from different tables or passages of the source.

What was measured:
[1] = target: T1, recombinant human LTA4 hydrolase (rhLTA4H) (Homo sapiens, UniProt P09960); experiment: Recombinant human LTA4 hydrolase assay for LTA4 hydrolase inhibitor activity; details: Recombinant Human LTA4 Hydrolase Assay IC50 LTA4H, recombinant hLTA4H
T1 sequence (P09960 1-611): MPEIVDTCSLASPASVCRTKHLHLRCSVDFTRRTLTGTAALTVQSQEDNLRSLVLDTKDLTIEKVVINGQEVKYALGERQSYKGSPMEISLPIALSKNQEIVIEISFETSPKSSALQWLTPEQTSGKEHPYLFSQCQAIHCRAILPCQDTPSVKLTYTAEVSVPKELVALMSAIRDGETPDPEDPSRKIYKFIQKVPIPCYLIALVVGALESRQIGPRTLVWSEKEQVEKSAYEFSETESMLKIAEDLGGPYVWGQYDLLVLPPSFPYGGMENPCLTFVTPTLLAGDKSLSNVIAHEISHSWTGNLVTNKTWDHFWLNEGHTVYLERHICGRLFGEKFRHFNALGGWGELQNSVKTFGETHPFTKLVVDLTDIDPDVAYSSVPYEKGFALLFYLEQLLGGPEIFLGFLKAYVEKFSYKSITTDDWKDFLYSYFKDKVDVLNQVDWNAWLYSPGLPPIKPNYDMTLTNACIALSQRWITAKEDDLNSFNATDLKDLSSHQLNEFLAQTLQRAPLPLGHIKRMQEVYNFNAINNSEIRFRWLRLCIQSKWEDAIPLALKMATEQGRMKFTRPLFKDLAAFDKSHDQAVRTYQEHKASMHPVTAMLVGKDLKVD
Description: One or more predetermined amounts of a compound of the invention were incubated in assay buffer (0.1 M potassium phosphate, 5 mg/ml fatty acid free BSA, 10% DMSO, pH 7.4) for 10 minutes at room temperature with 250 ng of recombinant hLTA4H to allow binding, if any, between the enzyme and inhibitor. The stock enzyme solution was 1 mg/ml LTA4 hydrolase, 50 mM Tris, pH 8.0, 150 mM NaCl, 2.5 mM beta-mercaptoethanol, 50% glycerol. […] Each reaction was carried out at room temperature for 10 minutes. The reaction was stopped by diluting 25 μl of the reaction mixture with 500 μl of the assay buffer without DMSO. LTB4 was quantified in the diluted sample by a commercially available enzyme-linked immunoassay [Caymen Chemical Co., Ann Arbor, Mich.] using the method recommended in the manufacturer's instructions and compared to the amount of LTB4 produced in a negative control (i.e., essentially identical conditions except without addition of an inhibitor compound). The IC50 was routinely calculated from the data produced.

[2] = system: LTB4 production in mouse blood (LTA4 hydrolase); experiment: Ex vivo LTB4 production by calcium ionophore stimulated mouse blood after oral dosing; assay type: in vivo
Outline: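 Male outbred mice dosed by oral gavage, 10 mg/kg (some at 50 mg/kg) in PBS with 2% DMSO and 1% Tween 80; heparinised blood taken at 60 min, calcium ionophore-stimulated 10 minutes at 37° C. LTB4 and thromboxane by ELISA; % inhibition against vehicle-dosed animals.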

[3] = system: LTB4 production in human whole blood (LTA4 hydrolase); experiment: LTB4 production by calcium ionophore stimulated human blood; assay type: cell-based; details: read-out: Inhibition of Calcium Ionophore-Induced LTB4 Production in Human Blood IC50 HWB
Description: LTB4 and Thromboxane Production by Calcium Ionophore Stimulated Human Blood for LTA4 Hydrolase Inhibitor Activity
One or more concentrations of the leukotriene A4 hydrolase inhibitor compounds being tested were prepared (diluted in DMSO) and 2 μl added and gently mixed with the diluted whole blood. After incubating for 15 minutes at 37° C. in a humidified incubator, calcium ionophore A23187 (Sigma Chemical Co., St. Louis, Mo.) was added to a final concentration of 20 mcg/ml and the incubation continued under the same conditions for an additional 10 minutes to allow LTB4 formation. The reaction was terminated by centrifugation (833 g, 10 minutes at 4° C.) and supernatant were analyzed for LTB4 and thromboxane by commercially available enzyme-linked immunoassays (Caymen Chemical Co., Ann Arbor, Mich.) according to the manufacturer's instructions. The IC50 of each test compound was determined from the amount of inhibition of LTB4 production as compared to an essentially identical assay in which no inhibitor compound was present.

[4] = target: T2, LTA4 hydrolase (Homo sapiens, UniProt P09960); details: background statement; cited from earlier work
T2 sequence (P09960 1-611): T1 sequence (P09960 1-611)

[5] = Mus musculus, po, 1 h; read-out: Murine Ex Vivo LTB4 Inhibition % I LTB4
[6] = Mus musculus, po, 1 h, read-out: Murine Ex Vivo LTB4 Inhibition % I LTB4
[7] = mouse, oral gavage, 1 hour after administration of 10 mg/kg; read-out: Murine Ex Vivo LTB4 Inhibition % I LTB4
[8] = Homo sapiens, human whole blood, A23187

| melting point [°C] | IC50 [1] [nM] | SMILES | inhibition in vivo at 10 mg/kg [2, 7] [%] | also measured |
| --- | --- | --- | --- | --- |
| 202 to 202.5 | – | c1ccc(Oc2ccc(NCCN3CCCC3)cc2)cc1 (as salt: HCl) [Example 71, N-(4-phenoxyphenyl)-1-pyrrolidine ethanamine, monohydrochloride] | – | – |
| 137 to 139 | – | Cl.c1ccc(Cc2ccc(SCCN3CCCC3)cc2)cc1 [Example 68, 1-[2-[4-(phenylmethyl)phenylthio]ethyl]pyrrolidine, monohydrochloride] | – | – |
| 78 to 79 | – | OCCOc1ccc(Oc2ccc(F)cc2)cc1 [Example 161] | – | – |
| 113 to 115 | – | Oc1ccc(OCCN2CCCC2)cc1 [Example 199] | – | – |
| – | 77 | CCOC(=O)CCNCCCOc1ccc(Cc2ccccc2)cc1 [Example 265] | 54 | IC50 [3, 8]: 450 nM |
| – | 93 | NC(=O)C1CCN(CC2Cc3cc(Cc4ccccc4)ccc3O2)CC1 (stereo not shown) [Example 281] | 83 | IC50 [3, 8]: 169 nM |
| – | 220 | c1ccc(Cc2ccc(OCCN3CCCCCCC3)cc2)cc1 [Example 398] | 0 | IC50 [3, 8]: 470 nM |
| 165 to 169 | 110 | O=C(O)[C@@H]1CCCN1CCCOc1ccc(Cc2ccccc2)cc1 [Example 430] | 37 | – |
| 165 to 167 | – | O=C(O)CCNCCCOc1ccc(Cc2ccccc2)cc1 [Example 431] | 71 | IC50 [3, 8]: 280 nM |
| 140 to 141 | – | O=C(O)CCNCCCCOc1ccc(Cc2ccccc2)cc1 [Example 433] | 71 | – |
| 132 to 134 | – | NC(=O)NC1CCN(CCOc2ccc(Cc3ccccc3)cc2)C1 (stereo not shown) [Example 453] | 92 | IC50 [3, 8]: 350 nM |
| – | 10 | NCCOc1ccc(Cc2ccccc2)cc1 [Example 496] | 54 | IC50 [3, 8]: 280 nM |
| 37 to 38 | 200 | C1=CC2CC1CN2CCOc1ccc(Cc2ccccc2)cc1 (stereo not shown) [Example 497] | 45 | – |
| – | – | CC(C)C[C@H](NC(=O)[C@@H](O)[C@H](N)Cc1ccccc1)C(=O)O [bestatin] | – | LTA4 hydrolase inhibitory activity [4]: exhibit LTA4 hydrolase inhibitory activity |
| – | – | C[C@H](CS)C(=O)N1CCC[C@H]1C(=O)O [captopril] | – | LTA4 hydrolase inhibitory activity [4]: exhibit LTA4 hydrolase inhibitory activity |

| SMILES | melting point [°C] | IC50 [1] [nM] | inhibition in vivo at 10 mg/kg [2, 7] [%] | also measured |
| --- | --- | --- | --- | --- |
| c1ccc(Cc2ccc3c(c2)CC(Cn2cnc4cnccc42)O3)cc1 (stereo not shown) [358 B] | – | 410 | – | inhibition in vivo at 10 mg/kg [2, 5]: 33%; IC50 ([3]; human whole blood, A23187): 640 nM |
| c1ccc(Cc2ccc3c(c2)CC(Cn2ccc4ncnc-4c2)O3)cc1 (stereo not shown) [358 C] | – | 87 | – | inhibition in vivo at 10 mg/kg [2, 5]: 13%; IC50 ([3]; human whole blood, A23187): 590 nM |
| [O-][S+](CCN1CCCC1)c1ccc(Cc2ccccc2)cc1 (stereo not shown) [Example 69, 1-[2-[4-(phenylmethyl)phenylsulfinyl]ethyl]pyrrolidine, monohydrochloride] | – | 6520 | – | inhibition in vivo at 10 mg/kg [2, 6]: 13%; IC50 ([3]; Homo sapiens): 11800 nM |
| CCOC(=O)C1CCN(CCOc2ccc(Cc3ccccc3)cc2)CC1 [Example 245] | – | 1770 | – | inhibition in vivo at 10 mg/kg [2, 6]: 97%; IC50 ([3]; Homo sapiens): 147 nM |
| COC(=O)C1CC2CCC(C1)N2CC1Cc2cc(Cc3ccccc3)ccc2O1 (stereo not shown) [Example 283] | – | 19 | – | inhibition in vivo at 10 mg/kg [2, 6]: 90%; IC50 ([3]; Homo sapiens): 90 nM |
| CN(CCCOc1ccc(Cc2ccccc2)cc1)CCC(=O)O [Example 434] | 113 to 116 | – | – | inhibition in vivo at 10 mg/kg [2, 6]: 100% |
